Measured values as given in patent US7375222B2, “2,4,6-Triamino-1,3,5-triazine derivative” (Astellas Pharma Inc., priority 2002, dated 2008).

Columns and labels:
ECS-induced amnesia = assay: Electroconvulsive shock (ECS)-induced amnesia, mouse passive avoidance task; type: in vivo
Method: Electricity Chorea Shock (ECS)-Induced Learning Disorder (Mouse Passive Evasion Reaction Test) The evaluation was carried out in the following manner with reference to a report (Eur. J. Pharmacology, 321; 273-278, 1997). Animals; Male ddy mice (SLC, five weeks of age at the time of the training) were used. Arranged into 31 or 32 animals per group. A compound to be evaluated was suspended in a solution prepared by dissolving methyl cellulose in physiological saline to a concentration of 0.5% (hereinafter, 0.5% methyl cellulose solution). The administration volume was set to 10 ml per 1 kg body weight. As a placebo of the compound to be evaluated, 10 ml of the 0.5% methyl cellulose solution per 1 kg body weight (hereinafter, vehicle) was administered. (2) Each mouse was put into the light compartment of a passive avoidance task apparatus and allowed to stand for 30 seconds. Thereafter, the Guillotine door was opened. […] (3) A period of time until the mouse crossed a sensor in the dark compartment after opening the Guillotine door (step-through latency) was recorded. […] Effect of the compound on ECS-induced amnesia was evaluated by comparison between a step-through latency of (ECS+vehicle administration) group and a that of (ECS+evaluation compound administration) group. Data were analyzed using two-tailed steel test. […]

BEC 1 potassium channel = target: T1, BEC 1 potassium channel (Homo sapiens, UniProt Q9ULD8); assay: BEC 1 inhibitory activity using released amount of 86Rb ions from BEC 1-expressing cells; type: cell-based; conditions: 86Rb ion release, BEC 1-stably expressing CHO (dhfr-deficient) cell, 100 mM KCl stimulation; read-out: BEC1 IC50
T1 construct: expressed in transfected cells
T1 sequence (Q9ULD8 1-1083): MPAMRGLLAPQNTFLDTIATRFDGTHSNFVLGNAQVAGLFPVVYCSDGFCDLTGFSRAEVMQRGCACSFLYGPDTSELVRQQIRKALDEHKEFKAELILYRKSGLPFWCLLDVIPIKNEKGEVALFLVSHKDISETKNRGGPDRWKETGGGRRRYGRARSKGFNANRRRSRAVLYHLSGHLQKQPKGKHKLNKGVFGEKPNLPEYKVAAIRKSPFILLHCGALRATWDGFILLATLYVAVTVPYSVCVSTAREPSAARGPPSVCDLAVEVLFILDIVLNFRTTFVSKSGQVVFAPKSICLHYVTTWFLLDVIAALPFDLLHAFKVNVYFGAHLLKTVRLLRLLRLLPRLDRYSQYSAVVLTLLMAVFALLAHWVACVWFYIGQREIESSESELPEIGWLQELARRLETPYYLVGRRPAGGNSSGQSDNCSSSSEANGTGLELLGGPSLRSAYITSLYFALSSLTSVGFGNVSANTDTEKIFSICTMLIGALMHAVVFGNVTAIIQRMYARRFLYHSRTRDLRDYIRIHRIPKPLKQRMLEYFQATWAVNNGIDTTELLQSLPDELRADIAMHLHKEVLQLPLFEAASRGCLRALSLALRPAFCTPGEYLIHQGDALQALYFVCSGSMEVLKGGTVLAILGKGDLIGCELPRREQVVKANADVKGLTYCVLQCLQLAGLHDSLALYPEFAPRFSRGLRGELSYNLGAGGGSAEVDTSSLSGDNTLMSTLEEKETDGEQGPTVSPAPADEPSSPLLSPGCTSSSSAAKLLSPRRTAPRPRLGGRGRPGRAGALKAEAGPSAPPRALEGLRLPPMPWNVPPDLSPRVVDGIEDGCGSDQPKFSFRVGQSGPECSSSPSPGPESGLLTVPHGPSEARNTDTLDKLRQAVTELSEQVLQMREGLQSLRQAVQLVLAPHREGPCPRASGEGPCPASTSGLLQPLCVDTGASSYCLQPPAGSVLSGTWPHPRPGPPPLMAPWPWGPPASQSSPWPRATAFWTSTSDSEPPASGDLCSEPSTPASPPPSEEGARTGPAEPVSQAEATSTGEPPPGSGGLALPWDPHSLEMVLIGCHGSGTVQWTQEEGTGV
Method: In general, the potassium channel can pass Rb^+ ion similar to K^+ ion, so that the channel activity can be measured using release of a radioisotope ^86Rb^+ as a marker. By incubating cells expressing the novel potassium channel protein together with ^86RbCl (e.g., 18 hr, 37° C.), ^86Rb^+ can be incorporated into the cells. The cells are washed with a low K^+ concentration physiological saline (e.g., 4.5 mM K^+) and then suspended in the same solution. When a high K^+ concentration solution (e.g., 100 mM in final concentration) is added to the cell suspension, membrane potential of the cell is depolarized and the potassium channel therefore is activated. As a result, the intracellular ^86Rb^+ is released into the extracellular part, thus radioactivity of the extracellular solution can be used as a marker of the channel activity. It is possible to screen a compound and a peptide capable of modifying activity of the BEC 1 potassium channel protein, by comparing the radioactivity released into the extracellular part when the high K^+ concentration solution is added in the presence and absence of each drug to be tested.
Method for Measuring BEC 1 Inhibitory Activity of Compounds Using Released Amount of ^86Rb ions as the Index
The channel activity of BEC 1 was measured in accordance with the method described in WO 99/37677, using amount of a radioisotope ^86Rb ion released from a BEC 1-expressing cell as the index. That is, when an ^86Rb ion-incorporated BEC 1-expressing cell was stimulated with 100 mM KCl, the radioactivity released from the cell was used as the channel activity of BEC 1. The ^86Rb ions were incorporated into a BEC 1-stably expressing cell by culturing the cell (3 hours, 37° C.) in the presence of ^86RbCl (0.5 μCi/ml), and the un-incorporated ^86Rb ions were removed by washing three times with HEPES-buffered saline (pH 7.4, 2.5 mM KCl). The cells were incubated with HEPES-buffered saline containing a compound to be tested at room temperature for 15 minutes and then further incubated with 100 mM KCl-containing HEPES-buffered saline (pH 7.4) containing the compound to be tested at room temperature for 5 minutes. The extracellular medium was recovered, and then the remaining cells were lysed with 0.1 N NaOH and recovered.
The Cerenkov radioactivity of the extracellular medium and cell lysate was respectively measured, and their total was used as the total radioactivity. The released amount of ^86Rb ions was expressed by the percentage of extracellular medium radioactivity based on the total radioactivity. The value obtained in the presence of the compound was used as a test value, and the value obtained in the absence of the compound as a control value and the value obtained when not stimulated with 100 mM KCl as a blank value. Inhibitory action of each compound was expressed by % inhibition, namely (control value−test value)×100/(control value−blank value), or by an IC50 value calculated from the % inhibition. As the test results of typical compounds are shown in the following Tables 2 and 3, it was confirmed that said compounds have the BEC 1 potassium channel inhibitory action.
In this connection, as the BEC 1-expressing cell, a BEC 1-stably expressing cell prepared in accordance with the method described in WO 99/37677 using a dihydrofolate reductase (dhfr)-deficient strain of a Chinese hamster ovary cell was used.

With `Fc1ccc(Nc2nc(NCc3ccnc(F)c3)nc(Nc3ccccc3)n2)cc1` [Example 744] the “minimum effective dose (step-through latency)” value (ECS-induced amnesia; intraperitoneally administered, male ddy mice, test 24 hours after training) was 3 mg/kg, the “effect on ECS-induced amnesia” value (ECS-induced amnesia; mouse passive avoidance task) was “shows the improving effect” and the IC50 (BEC 1 potassium channel) was 85 nM.
